≈ marks a conversion by molar mass, not a printed value.
Legend:
in vivo = details: cynomolgus monkey, plasma, inhaled or intranasal, 50 mg/kg
Experimental: Intact FGF21 levels in plasma were measured by ELISA.
FAP activity and intact FGF21 concentrations were measured as described above.

[1] = Microsomal stability, mouse; type: in vitro ADME; details: liver microsomes, pH 7.4, mouse (M), 0.5 mg/mL, NADPH, read-out: Microsomal stability (% remaining at 60 min)
Experimental: (§1) Aliquots were then transferred in duplicate to: (i) a final concentration plate that was immediately quenched with 23.6 ng/mL internal standard (IS, chlorpropamide) in acetonitrile (ACN) or (ii) tubes, which were centrifuged for 5 min at 4℃ (14,000 rpm). The samples were subjected to LC–MS/MS analysis on an AB Sciex 4000 Q Trap hybrid triple quadrupole linear ion-trap MS (AB Sciex, Framingham, MA) coupled to an Agilent 1200 HPLC (Agilent Tech. Santa Clara, CA) with a reverse-phase Kinetex XB-C18 column (2.1 × 100 mm, 2.6 µm; Phenomenex). Mobile phases were comprised of 0.1% formic acid (FA) in water (A) and 0.1 FA in ACN (B). Data analysis was performed using […] (Ver. 1.6.1).

hERG = molecular target: T1, hERG (Homo sapiens, UniProt Q12809); assay: hERG binding assay based on fluorescence polarization
T1 construct: purchased Invitrogen; host or cells: membrane preparation of the kit
T1 sequence (Q12809 whole entry): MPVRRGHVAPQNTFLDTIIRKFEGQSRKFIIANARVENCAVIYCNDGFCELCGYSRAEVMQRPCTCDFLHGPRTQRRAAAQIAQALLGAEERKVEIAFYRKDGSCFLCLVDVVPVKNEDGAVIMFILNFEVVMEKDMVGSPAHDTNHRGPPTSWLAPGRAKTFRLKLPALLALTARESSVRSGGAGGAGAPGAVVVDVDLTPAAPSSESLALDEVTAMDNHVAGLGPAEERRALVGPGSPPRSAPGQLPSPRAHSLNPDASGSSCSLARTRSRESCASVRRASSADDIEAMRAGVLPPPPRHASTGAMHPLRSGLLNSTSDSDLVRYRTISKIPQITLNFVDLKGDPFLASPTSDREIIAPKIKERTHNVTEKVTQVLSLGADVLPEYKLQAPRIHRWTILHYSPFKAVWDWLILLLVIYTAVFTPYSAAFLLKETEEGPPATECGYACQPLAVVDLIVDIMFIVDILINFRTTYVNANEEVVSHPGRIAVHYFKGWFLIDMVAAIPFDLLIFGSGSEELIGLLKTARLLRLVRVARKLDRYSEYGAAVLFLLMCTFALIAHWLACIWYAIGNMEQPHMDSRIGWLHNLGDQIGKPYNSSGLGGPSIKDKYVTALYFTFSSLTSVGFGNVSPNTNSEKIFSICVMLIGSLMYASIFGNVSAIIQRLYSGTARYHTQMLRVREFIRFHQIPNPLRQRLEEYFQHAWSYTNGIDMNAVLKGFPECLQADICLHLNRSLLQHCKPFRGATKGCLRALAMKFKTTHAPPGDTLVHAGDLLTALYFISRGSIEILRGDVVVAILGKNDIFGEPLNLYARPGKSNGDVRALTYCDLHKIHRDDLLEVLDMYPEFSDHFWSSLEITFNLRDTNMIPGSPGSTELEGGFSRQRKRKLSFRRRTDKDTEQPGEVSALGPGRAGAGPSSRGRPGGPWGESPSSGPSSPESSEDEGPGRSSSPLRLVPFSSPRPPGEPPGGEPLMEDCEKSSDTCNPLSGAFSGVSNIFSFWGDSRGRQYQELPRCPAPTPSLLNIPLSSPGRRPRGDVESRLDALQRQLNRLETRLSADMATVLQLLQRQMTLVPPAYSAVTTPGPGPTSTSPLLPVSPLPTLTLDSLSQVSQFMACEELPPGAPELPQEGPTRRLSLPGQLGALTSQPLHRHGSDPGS
Experimental: Predictor hERG Assay test kits were obtained from Invitrogen (Carlsbad, CA). The binding assay was carried out according to the manufacturer’s instructions. […] Working Tracer solution (5 μL) was then added and the plate was allowed to incubate at room temperature for at least 1 h, and then fluorescence polarization was measured using the Synergy 4 Hybrid Microplate Reader from BioTek Instruments (Winooski, VT) with 530/25 excitation and 590/35 emission filters along with a 570 nm cut off dichroic mirror. Polarization values were calculated automatically using Gen Data Analysis Software (BioTek Instruments). The above protocol is described in detail in the Invitrogen’s application note.

ob/ob mice = assay: Acute study using ob/ob mice: blood glucose and intact hFGF21; details: for nonfasting blood glucose level, average: 3 h after administration
Experimental: Blood was collected at the indicated time points. (a) Nonfasting blood glucose levels were measured at the indicated time points. […] (c) Plasma intact hFGF21 levels were measured using ELISA kit at 1, 3, 6, and 9 h. All data are the means ± S.D. *P < 0.05, **P < 0.01 and *** P < 0.001 vs. vehicle group.
Blood was promptly collected by orbital bleeding that was allowed to clot, and supernatant was collected after centrifugation at 4 °C at 3000 rpm. Serum intact FGF21 concentrations were measured by intact hFGF21 ELISA (Alpco, Keewaydin Dr, Salem, NH, catalog no. 43-FGFHU-E01)[29].

[2] = Microsomal stability, dog; type: in vitro ADME; details: liver microsomes, pH 7.4, dog (D), 0.5 mg/mL, NADPH, read-out: Microsomal stability (% remaining at 60 min)
Experimental: as §1

serum FAP = molecular target: T2, serum FAP (Homo sapiens, UniProt Q12884); assay: IC50 on serum FAP, humans; type: biochemical
T2 construct: also found in human serum as a soluble form lacking the transmembrane domain; from tissue; host or cells: human serum
T2 sequence (Q12884 24-760 limits assumed): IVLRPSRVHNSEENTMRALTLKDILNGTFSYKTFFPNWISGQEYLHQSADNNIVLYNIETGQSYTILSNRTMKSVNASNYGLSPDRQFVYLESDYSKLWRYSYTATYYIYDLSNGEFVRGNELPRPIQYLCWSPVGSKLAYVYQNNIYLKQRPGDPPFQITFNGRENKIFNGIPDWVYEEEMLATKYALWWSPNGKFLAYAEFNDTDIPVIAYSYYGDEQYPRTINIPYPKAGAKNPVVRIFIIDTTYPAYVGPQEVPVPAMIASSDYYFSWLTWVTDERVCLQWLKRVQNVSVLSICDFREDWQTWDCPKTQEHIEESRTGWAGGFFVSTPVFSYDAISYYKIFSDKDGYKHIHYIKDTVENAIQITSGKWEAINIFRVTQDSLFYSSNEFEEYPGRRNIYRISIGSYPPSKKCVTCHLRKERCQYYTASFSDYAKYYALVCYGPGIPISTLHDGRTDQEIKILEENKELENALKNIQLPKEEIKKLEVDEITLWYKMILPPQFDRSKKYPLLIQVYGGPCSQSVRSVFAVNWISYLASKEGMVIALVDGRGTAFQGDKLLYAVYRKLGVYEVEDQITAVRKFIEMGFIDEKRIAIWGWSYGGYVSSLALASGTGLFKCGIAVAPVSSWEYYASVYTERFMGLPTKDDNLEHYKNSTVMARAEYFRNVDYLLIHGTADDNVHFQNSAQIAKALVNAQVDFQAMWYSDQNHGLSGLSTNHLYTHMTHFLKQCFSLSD

[3] = Microsomal stability, human; type: in vitro ADME; details: liver microsomes, pH 7.4, 0.5 mg/mL, NADPH, read-out: Microsomal stability (% remaining at 60 min)
Experimental: as §1

CYP 1A2 = molecular target: T3, CYP 1A2 (Homo sapiens, UniProt P05177); assay: CYPs inhibition, human liver microsome, substrate cocktail; type: in vitro ADME; details: 1st of 5 values; head prints H; footnote lists CYPs 1A2, 2C9, 2C19, 2D6, 3A4; read-out: CYPs inhibition (IC50, µM) (H/Mk/D/R/M)
T3 construct: from tissue; host or cells: human liver microsomes
T3 sequence (P05177 whole entry): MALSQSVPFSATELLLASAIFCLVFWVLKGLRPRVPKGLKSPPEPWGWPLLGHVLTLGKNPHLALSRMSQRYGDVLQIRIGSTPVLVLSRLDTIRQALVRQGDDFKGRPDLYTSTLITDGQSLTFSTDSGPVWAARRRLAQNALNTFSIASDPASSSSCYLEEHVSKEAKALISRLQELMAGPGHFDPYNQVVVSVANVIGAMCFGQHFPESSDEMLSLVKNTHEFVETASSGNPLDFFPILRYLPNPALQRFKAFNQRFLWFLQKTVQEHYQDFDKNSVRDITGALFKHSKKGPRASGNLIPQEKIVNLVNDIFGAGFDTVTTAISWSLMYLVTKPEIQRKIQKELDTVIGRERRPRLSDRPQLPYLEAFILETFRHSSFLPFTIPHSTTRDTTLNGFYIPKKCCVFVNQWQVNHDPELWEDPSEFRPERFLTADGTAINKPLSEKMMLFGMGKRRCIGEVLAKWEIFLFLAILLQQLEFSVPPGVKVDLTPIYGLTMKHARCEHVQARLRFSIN
Text: (§2) Metabolites of the substrate probes were simultaneously analyzed by multiple-reaction monitoring using routine LC-MS/MS.

CYP 2D6 = molecular target: T4, CYP 2D6 (Homo sapiens, UniProt P10635); assay: as above; type: in vitro ADME; details: 4th of 5 values; head prints R; footnote lists CYPs 1A2, 2C9, 2C19, 2D6, 3A4; read-out: CYPs inhibition (IC50, µM) (H/Mk/D/R/M)
T4 construct: from tissue; host or cells: human liver microsomes
T4 sequence (P10635 whole entry): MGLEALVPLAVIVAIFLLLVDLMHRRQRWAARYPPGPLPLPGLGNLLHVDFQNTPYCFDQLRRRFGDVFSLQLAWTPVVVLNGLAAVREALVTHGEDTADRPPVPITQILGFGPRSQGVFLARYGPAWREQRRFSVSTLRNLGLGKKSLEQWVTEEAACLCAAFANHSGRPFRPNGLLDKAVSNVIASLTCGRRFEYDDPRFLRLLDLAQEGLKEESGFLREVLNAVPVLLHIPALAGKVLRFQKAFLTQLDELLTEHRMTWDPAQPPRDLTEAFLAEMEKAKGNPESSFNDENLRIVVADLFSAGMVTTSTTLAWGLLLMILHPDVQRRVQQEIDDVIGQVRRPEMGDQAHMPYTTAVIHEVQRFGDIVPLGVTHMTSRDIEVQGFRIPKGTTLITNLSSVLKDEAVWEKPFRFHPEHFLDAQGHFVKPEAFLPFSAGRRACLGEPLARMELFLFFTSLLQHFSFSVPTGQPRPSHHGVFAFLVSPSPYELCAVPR
Text: as §2

CYP 2C9 = molecular target: T5, CYP 2C9 (Homo sapiens, UniProt P11712); assay: as above; type: in vitro ADME; details: 2nd of 5 values; head prints Mk; footnote lists CYPs 1A2, 2C9, 2C19, 2D6, 3A4; read-out: CYPs inhibition (IC50, µM) (H/Mk/D/R/M)
T5 construct: from tissue; host or cells: human liver microsomes
T5 sequence (P11712 whole entry): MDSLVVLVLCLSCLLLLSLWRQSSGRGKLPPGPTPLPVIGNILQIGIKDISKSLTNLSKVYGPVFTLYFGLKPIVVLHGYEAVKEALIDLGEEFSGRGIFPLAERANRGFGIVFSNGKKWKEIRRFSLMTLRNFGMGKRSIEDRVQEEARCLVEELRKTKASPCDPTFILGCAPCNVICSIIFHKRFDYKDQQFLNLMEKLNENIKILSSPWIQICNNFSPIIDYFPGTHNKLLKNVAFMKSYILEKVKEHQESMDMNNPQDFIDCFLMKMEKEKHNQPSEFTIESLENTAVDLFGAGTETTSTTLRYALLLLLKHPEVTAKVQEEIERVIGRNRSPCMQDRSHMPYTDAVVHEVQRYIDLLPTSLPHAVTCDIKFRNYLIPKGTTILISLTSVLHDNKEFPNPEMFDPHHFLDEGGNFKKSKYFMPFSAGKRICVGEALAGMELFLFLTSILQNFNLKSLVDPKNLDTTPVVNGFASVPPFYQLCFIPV
Text: as §2

Kinetic solubility = type: physicochemical; details: 22 °C, kinetic from dmso stock
Experimental: Kinetic solubility was conducted as described. […] The samples were agitated for 2 h using a plate shaker (500 rpm, 22℃). Approximately 150 µL of the resulting supernatant was transferred to a 96-well analysis plate and the calibration and test samples were analyzed by HPLC with a diode array detector (Agilent 1200 HPLC) comprising a reverse-phase Kinetex XB-C18 column (2.1 × 100 mm, 2.6 µm; Phenomenex). Mobile phases were composed of 0.1% FA in water (A) and 0.1% FA in ACN (B).

N#Cc1ccc(Cc2nc(C(=O)NCC(=O)N3CC(F)(F)C[C@H]3C#N)cs2)cc1 [BR103354, (S)-N-(2-(2-cyano-4,4-difluoropyrrolidin-1-yl)-2-oxoethyl)-2-(4-cyanobenzyl)thiazole-4-carboxamide]
Tmax (in vivo): 3 h
remaining at 1 h, 1 µM [1]: 98%
IC50 (hERG): > 788 µM
nonfasting blood glucose level, average (ob/ob mice; 20 mg/kg p.o. + hFGF21 0.1 mg/kg i.p.): 178 mg/dL
nonfasting blood glucose level, average (ob/ob mice; 50 mg/kg p.o. + hFGF21 0.1 mg/kg i.p.): 154 mg/dL
decrease of blood glucose AUC (ob/ob mice; 20 or 50 mg/kg p.o. + hFGF21 0.1 mg/kg i.p.): 40–45%
levels of intact FGF21 in plasma (ob/ob mice; co-administered with hFGF21 0.1 mg/kg, until 3 h): increased levels of intact FGF21 in plasma until 3 h
levels of intact FGF21 (ob/ob mice; co-administered with hFGF21, after 6 h of administration): lower than 10 ng/mL
remaining at 1 h, 1 µM [2]: > 100%
IC50 (serum FAP): 29 nM
remaining at 1 h, 1 µM [3]: 95%
IC50 (CYP 1A2): > 50 µM
IC50 (CYP 2D6): > 50 µM
IC50 (CYP 2C9): > 50 µM
solubility kinetic at 2 h (Kinetic solubility; pH 3.5, aqueous buffer): 81 µg/mL (≈ 195 µM)
solubility kinetic at 2 h (Kinetic solubility; simulated gastric fluid, pH 1.0): 79 µg/mL (≈ 190 µM)
solubility kinetic at 2 h (Kinetic solubility; phosphate buffer, pH 7.4, aqueous buffer): 78 µg/mL (≈ 188 µM)

— PMC7718273 (Scientific Reports, 2020)
